Assays:
adult human = experiment: Theoretical extrapolation of the toxic deuterium oxide body content to an adult human; settings: adult human of 60 kg body weight
Description: Deuterium oxide (heavy water, D2O, Mw: 20.03, CAS No. 7789-20-0) can be isolated from seawater. A normal body of adult human contains about 5 g deuterium oxide. […] Based on this experimental result, theoretically, assuming the body weight of an adult human is 60 kg, deuterium oxide that reaches 18 kg in the body starts to cause toxicity. However, it is actually impossible for a human body to have 18 kg deuterium oxide. […] Therefore, deuterium oxide should be a non-toxic substance [D. M. Czajka: Am. J. Physiol.

[1] = tested on: Ehrlich ascites tumor (EAC); experiment: Survival of Ehrlich ascites tumor-bearing mice, intraperitoneal perfusion (lavage) with deuterium oxide and 5-FU; format: in vivo, ICR mice; settings: i.p., 10 days; for MST: control 14.1 ± 1.9
Protocol: Studying 1: Efficacy of intraperitoneal perfusion (lavage) with deuterium oxide in combination with 5-fluorouracil on Ehrlich ascites tumor (EAC)-bearing mice.
Laboratory animal: 4 to 5 week-aged male ICR mice, provided by Shanghai SIPPR-BK Laboratory Animal Co. Ltd.
1. Modeling: EAC ascitic fluid was taken and adjusted to 1×10^7 cells/ml, which was inoculated into the peritoneal cavity of mice at 0.1 ml/mouse. 2. Grouping and dosing: the animals were randomized 3 days after inoculation, and meanwhile drugs were given to mice in each group, following the dosing scheme shown in Table 10.
In Table 10, “Sodium chloride deuterium oxide solution 0.1 ml/animal+5-FU 20 mg/kg” means that each mouse was given 0.1 ml sodium chloride deuterium oxide solution, in which 5-FU had been dissolved to make a dose of 20 mg/kg.
After the dosing, ascitic fluid was taken from 3 mice from each group, the volume of the ascitic fluid was measured, the number of tumor cells in the ascitic fluid was counted, and the rest of animals were continuously fed. Median survival time (MST) was recorded for animals in each group to evaluate the survival time for each group.
The comparison between the treatment group and the control group was expressed by T/C (%) which is calculated by the following equation: […]
T MST: MST of the treatment group; C MST: MST of the negative control group.
The evaluation criterion uses 125% as a cut-off threshold. When T/C %≧125%, effective, otherwise ineffective.
The mean value was expressed in X±SD. Inter-group analysis was statistically performed with t test. The results were statistically analyzed using SPSS (Statistical Package for the Social Science) 17.0.

[2] = tested on: human colon cancer HCT-116 cells inoculated into the peritoneal cavity; experiment: Survival of nude mice bearing HCT-116 cells, 42° C. intraperitoneal retention lavage with hydroxyethyl starch or sodium chloride deuterium oxide solution and 5-FU; format: in vivo; settings: 42° C. NS 10 ml/kg + 5-FU 20 mg/kg, i.p. lavage x 5
Protocol: Comparison of survival time of nude mice bearing human colon cancer HCT-116 cells upon 42° C. hyperthermic intraperitoneal retention lavage using a hydroxyethyl starch deuterium oxide solution in combination with 5-FU and using a sodium chloride deuterium oxide solution in combination with 5-FU.
Animal: 4 to 5 week-aged male nude mice, provided by Shanghai SIPPR-BK Laboratory Animal Co. Ltd.
Cell lines: human colon cancer cell line HCT-116 was provided by NANJING KEYGEN BIOTECH. CO., LTD.
Modeling: 0.2 ml suspension of HCT-116 cancer cells containing 1×10^7 cells/ml (2×10^6 cells in total) was inoculated into the peritoneal cavity of the nude mice.
Grouping and dosing: the mouse model was established 7 to 8 days after inoculation into the nude mice, and the mice were randomized with 18 animals/group.
5-FU was separately dissolved in the hydroxyethyl starch deuterium oxide solution at 42° C., and in the sodium chloride deuterium oxide solution at 42° C., for intraperitoneal lavage of tumor-bearing mice.
1). […]
The peritoneal cavity of nude mice was lavaged with the above compositions which were retained for 20 min in the peritoneal cavity after being introduced, which was performed once a day for 5 successive times. The body weight and abdomen circumference of the nude mice were measured on each day before administration of the drugs, and the daily living status of mice was observed. […]

malignant tumors = settings: as a single drug in clinical settings; cited from earlier work

Compound: [2H]O[2H] [Deuterium oxide]
- amount in the body that starts to cause toxicity (adult human): 18 kg

Compound: O=c1[nH]cc(F)c(=O)[nH]1 [Example 5-FU, 5-fluorouracil]
- T/C(%) ([1]; 5-FU 20 mg/kg in NS): 154.6%
- MST ([1]; 5-FU 20 mg/kg in NS): 21.8 ± 2.9 days
- T/C(%) ([1]; 5-FU 30 mg/kg in NS): 158.1%
- MST ([1]; 5-FU 30 mg/kg in NS): 22.3 ± 4.9 days
- T/C(%) [2]: 138.7%
- MST ([2]; control 12.4 ± 2.9): 17.2 ± 2.2 days
- overall response rate (malignant tumors): 10%

Source: patent US20170071976A1, “PHARMACEUTICAL SOLUTION HAVING ANTI-TUMOR EFFECT-ENHANCING AND TOXICITY-REDUCING EFFECT, AND PHARMACEUTICAL COMPOSITION COMPRISING SAME” (priority 2014, published 2017)
